4 compounds from patent US12594276B2, “Inhibitors of human immunodeficiency virus replication” (ViiV Healthcare UK (No.5) Limited, priority 2024, dated 2026) can be followed below.

Bounds are passed on as bounds.

Data set [1] in a line: Compound cytotoxicity, XTT-based colorimetric assay. Format: cell-based. The note with it: human; uninfected MT2 cells, day 4, XTT; read-out: CC50. The procedure, abridged: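 Uninfected MT2 cells were treated with compound under the same protocol as the antiviral assay. Viability was read on day 4 with an XTT colorimetric assay, from which CC50 values were derived.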
For orientation: Tetrazolium assays rely on reduction of a dye to a coloured formazan, in cell work by metabolically active cells.

Data set [2] deals with recombinant NL4-3 virus (nef section replaced with Renilla luciferase gene) in MT-2 cells. The data set is described as follows: HIV cell culture assay (antiviral activity, luciferase readout). The class given is cell-based. Particulars: Renilla, NL43, MT-2 cells infected for 4-5 days with recombinant NL4-3 Renilla luciferase virus. The procedure, abridged: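 Read-out: Renilla luciferase (live-cell substrate) in infected MT-2 cells after 4-5 d with serial compound dilutions. Virus from 293T transfection of the proviral clone, titered by luciferase in MT-2. EC50 via median effect equation fit.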

Usually CC50 stands for the concentration that lowers cell viability or growth by half. By EC50 is commonly meant the concentration needed to bring the measured effect to its halfway point. For `Cc1cc(C2(F)CCC(F)(F)CC2)nc2nc([C@H](Cc3cc(F)cc(F)c3)NC(=O)Cn3nc(C(F)(F)F)c4c3C[C@@H]3C[C@H]43)n(-c3ccc(Cl)c4c(NS(C)(=O)=O)nn(CCN5C[C@H](F)C[C@H](F)C5)c34)c(=O)c12` (atropisomer, axis not shown; (P)) [Example 572, N-[(1S)-1-[(3P)-3-(4-chloro-1-{2-[(3R,5S)-3,5-difluoropiperidin-1-yl]ethyl}-3-methanesulfonamido-1H-indazol-7-yl)-5-methyl-4-oxo-7-(1,4,4-trifluorocyclohexyl)-3H,4H-pyrido[2,3-d]pyrimidin-2-yl]-2-(3,5-difluorophenyl)ethyl]-2-[(2S,4S)-9-(trifluoromethyl)-7,8-diazatricyclo[4.3.0.0^2,^4]nona-1(6),8-dien-7-yl]acetamide], in data set [1], the half-maximal cytotoxic concentration (CC50) at 4 days is above 20 nM. For the same compound, in data set [2], the concentration giving a half-maximal response (EC50) was 0.015 nM.
Take `Cc1cc(C2(F)CCC(F)(F)CC2)nc2nc([C@H](Cc3cc(F)cc(F)c3)NC(=O)Cn3nc(C4CC4)c4c3C[C@@H]3C[C@H]43)n(-c3ccc(Cl)c4c(NS(C)(=O)=O)nn(CCN5C[C@@H](C)O[C@@H](C)C5)c34)c(=O)c12` (atropisomer, axis not shown; (P)) [Example 503, N-[(1S)-1-[(3P)-3-(4-chloro-1-{2-[(2R,6S)-2,6-dimethylmorpholin-4-yl]ethyl}-3-methanesulfonamido-1H-indazol-7-yl)-5-methyl-4-oxo-7-(1,4,4-trifluorocyclohexyl)-3H,4H-pyrido[2,3-d]pyrimidin-2-yl]-2-(3,5-difluorophenyl)ethyl]-2-[(2S,4S)-9-cyclopropyl-7,8-diazatricyclo[4.3.0.0^2,4]nona-1(6),8-dien-7-yl]acetamide]: the CC50 at 4 days in data set [1] is above 20 nM. The EC50 in data set [2] came to 0.008 nM.
In the same order, the values of `CS(=O)(=O)Nc1nn(CCN2C[C@H](F)C[C@H](F)C2)c2c(-n3c([C@H](Cc4cc(F)cc(F)c4)NC(=O)Cn4nc(C(F)F)c5c4C(F)(F)[C@@H]4C[C@H]54)nc4nc(C5CCC(F)(F)CC5)cc(CF)c4c3=O)ccc(Cl)c12` (atropisomer, axis not shown; (P)) [Example 512, N-[(1S)-1-[(3P)-3-(4-chloro-1-{2-[(3R,5S)-3,5-difluoropiperidin-1-yl]ethyl}-3-methanesulfonamido-1H-indazol-7-yl)-7-(4,4-difluorocyclohexyl)-5-(fluoromethyl)-4-oxo-3H,4H-pyrido[2,3-d]pyrimidin-2-yl]-2-(3,5-difluorophenyl)ethyl]-2-[(2S,4R)-9-(difluoromethyl)-5,5-difluoro-7,8-diazatricyclo[4.3.0.0^2,^4]nona-1(6),8-dien-7-yl]acetamide] are above 20 nM and 0.006 nM.
In the same order, the values of `CS(=O)(=O)Nc1nn(CCN(CCC(F)(F)F)CCC(F)(F)F)c2c(-n3c([C@H](Cc4cc(F)cc(F)c4)NC(=O)Cn4nc(C(F)F)c5c4C(F)(F)[C@@H]4C[C@H]54)nc4nc(C5CCC(F)(F)CC5)ccc4c3=O)ccc(Cl)c12` (atropisomer, axis not shown; (P)) [Example 671, N-[(1S)-1-[(3P)-3-(1-{2-[bis(3,3,3-trifluoropropyl)amino]ethyl}-4-chloro-3-methanesulfonamido-1H-indazol-7-yl)-7-(4,4-difluorocyclohexyl)-4-oxo-3H,4H-pyrido[2,3-d]pyrimidin-2-yl]-2-(3,5-difluorophenyl)ethyl]-2-[(2S,4R)-9-(difluoromethyl)-5,5-difluoro-7,8-diazatricyclo[4.3.0.0^2,^4]nona-1(6),8-dien-7-yl]acetamide] are above 20 nM and 0.027 nM.
